# Reference: a melting point compilation (Tetko et al.)
# Peptide text beside a SMILES is read from it.
row,melting point,Compound
1,79 °C,Cc1ccc(Br)cc1O
2,175 to 178 °C,NC(=S)c1ccc(Oc2ccc(C(F)(F)F)cn2)cc1
3,99 to 100 °C,Cc1ccccc1-n1ncc(C=O)c1C
4,123 to 125 °C,O=C(NCc1ccc(S(=O)(=O)Cl)s1)c1ccccc1
5,-12 °C,CC(C)c1ccc(Br)cc1
6,120 to 122 °C,CC(C)(C)OC(=O)N1CCN(c2ccccc2N)CC1
7,161 °C,C=CCc1c(O)c(C(=O)c2ccccc2)cc(C(=O)c2ccccc2)c1O
8,154 to 156 °C,Brc1ccc(-c2csnn2)cc1
9,108 °C,Nc1cccc2cc3ccccc3nc12
10,56 °C,OC1Cc2cccc(F)c21 (configuration not stated)
11,65 °C,CCOC(=O)COC(=O)c1cc(Oc2ccc(C(F)(F)F)cc2Cl)ccc1[N+](=O)[O-]
12,45 °C,CCCCCCCOc1ccc(N)cc1
13,173 to 178 °C,Cc1cc2cc([N+](=O)[O-])ccc2[nH]1
14,25 °C,CNCCCN1c2ccccc2CCc2ccccc21
15,141 °C,CCCCC(NC(=O)OCC1c2ccccc2-c2ccccc21)C(=O)O (configuration not stated)
16,41 °C,CC(=O)Oc1ccc(OC(C)=O)c(C)c1
17,145 °C,COc1ccc(OC)c(/C=N/n2c(S)nnc2C(F)(F)F)c1
18,65 °C,Cc1ccc(C(c2ccc(C)o2)c2ccccc2N=C=S)o1
19,160 °C,Cc1ccc2ccc3ccc(C)nc3c2n1
20,25 °C,O=C1CCc2ccccc2O1
21,125 to 126 °C,Cn1nnc2cc(C(=O)Cl)ccc21
22,124 °C,CCOC(=O)CCc1ccc2c(c1)NC(=O)CC2
23,48 to 49 °C,Nc1cc(Br)ccc1Cl
24,218 °C,Cn1[nH]c(N)c2c(=O)ccnc1-2
25,134 °C,CC1(C)OC2(C)CCC1C(=O)OC2(c1ccccc1)c1ccccc1 (configuration not stated)

# Second part, the molecule before the results:
row,Compound,melting point
1,NNc1nc(N)nc(C23CC4CC(CC(C4)C2)C3)n1,265 to 267 °C
2,CC[C@H](C)[C@H](NC(=O)CN)C(=O)O (H-Gly-Ile-OH),248 °C
3,CC12CCC(/C(=C/N(O)c3ccccc3)C1=O)C2(C)C (configuration not stated),106 to 107 °C
4,CC12CCC3c4ccc(OC5CCCC5)cc4CCC3C1CC(O)C2O (configuration not stated),99 °C
5,C=C[N+](=O)[O-],-55.5 °C
6,CCON=C(CC)C1=C(O)CC(c2c(C)cc(C)cc2C)CC1=O (configuration not stated),110 °C
7,Cc1cc(C)c(CCl)c(C)c1,40 °C
8,CC1CNC(C(C2=NCC(C)N2)C2=NCC(C)N2)=N1 (configuration not stated),241 to 242 °C
9,COc1cc2c(cc1O)C=NCC2,187 to 191 °C
10,Cc1cc(NN)nc2c1c(C)nn2C,199 to 205 °C
11,O=C(CCC1=NC=NC1)NCCc1c[nH]cn1,164 °C
12,O=CN(C=O)C=O,100 to 101 °C
13,CCOC(=O)C=C1SC(N2CCCCC2)C(=O)N1CC (configuration not stated),86 °C
14,COc1ccc(C=O)c(OC)c1OC,40 °C
15,O=C(O)C(O)Cc1ccccc1 (configuration not stated),121 to 125 °C
16,COc1cc2c(cc1C)C(C#N)C2 (configuration not stated),67 °C
17,CC(=O)Nc1ccc(Cl)cc1[N+](=O)[O-],98 °C
18,COc1ccc[nH]c1=O,115 °C
19,C#CC(O)CCCCC (configuration not stated),-60 °C
20,Clc1cc(Cl)c2c(c1Cl)Oc1ccccc1O2,128 °C
21,O=C1C(=O)c2ccccc2C(Cl)=C1Cl,184 °C
22,CCC1CC(NC(=O)CNC(=O)CBr)C(C)(C)N1O (configuration not stated),145 to 147 °C
23,CN(C)C1C(=O)C(=C(N)O)C(=O)C2(O)C(=O)C3=C(O)c4c(O)cccc4C(C)(O)C3C(O)C12 (configuration not stated),121 °C
24,O=Cc1cc(F)ccc1Br,54 °C
25,COC(=O)c1ccc(S(=O)(=O)NC(C)(C)C)n1C,104 to 105 °C
26,CC12CCC(O)CC1CCC1C2CCC2(C)C(C3=CC(=O)OC3)C(O)CC12O (configuration not stated),234 °C
27,CC(O)C1(O)CC2C3CCC4(C)CC(O)CCC4(C)C3CCC2(C)C1 (configuration not stated),220 to 221 °C
